Source: US20170258786A1, “RBP4 ANTAGONISTS FOR THE TREATMENT OF AGE-RELATED MACULAR DEGENERATION AND STARGARDT DISEASE” (The Trustees of Columbia University in the City of New York, priority 2013, published 2017)

Key:
[1] = target: T1, RBP4-TTR interaction (Homo sapiens, UniProt P02753); assay: TR-FRET/HTRF assay for antagonists of retinol-induced RBP4-TTR interaction (Example 2, agonist and antagonist mode); type: biochemical; details: agonist mode, dose titration without retinol
T1 construct: host or cells: E. coli
Source text: TR-FRET (Time-Resolved Fluorescence Resonance Energy Transfer) is an assay format that can be used in characterization of compounds affecting protein-protein interactions (31-33). […] In the presence of retinol, RBP4-TTR interaction induces FRET that can be registered as increased ratio of […] fluorescence signals. Binding of a desired RBP4 antagonist displaces retinol and induces hindrance for RBP4-TTR interaction resulting in the decreased FRET signal (FIG. 7).
The assay was developed using E. coli-expressed MBP-tagged RBP4 and commercially available TTR labeled directly with Eu3+ cryptate. In addition to MBP-RBP4 and Eu3+ (K)-TTR, a detector reagent anti-MBP-d2 was present in the mix. The assay was first optimized in the agonist mode; sensitivity and dynamic range of the assay was […] in respect to RBP4, TTR and detection reagent concentrations.

[2] = tested on: A2E production; details: animal model of excessive bisretinoid accumulation, reference 11; cited from earlier work
[3] = target: T2, serum RBP4 (Mus musculus, UniProt Q00724); assay: Serum RBP4 measured by ELISA in Abca4-/- mice; type: in vivo
T2 construct: There was approximately a 70% reduction in the serum RBP4 level in treated animals; from tissue; host or cells: mouse serum (Abca4-/- and wild-type, 129/SV x C57BL/6J)
Procedure: The Abca4−/− mouse model manifests accelerated accumulation of lipofuscin in the RPE and is considered a pre-clinical efficacy model for a drug reducing lipofuscin accumulation.
(§1) Ten week-old Abca4 null mutant mice (129/SV×C57BL/6J) bred as previously described were used in the study. Abca4−/− (knockout) and Abca4+/+ (wild-type) mice were raised under 12 h on-off cyclic lighting with an in-cage illuminance of 30-50 lux. For long-term oral dosing A1120 was formulated into Purina 5035 rodent chow at Research Diets, Inc. (New Brunswick, N.J.) to ensure consistent 30 mg/kg daily oral dosing. Animals were administered the A1120-containing chow for 6 weeks.
Blood samples were collected from a tail vein at days 0, 21 and 42 of the A1120 dosing. Whole blood was drawn into a centrifuge tube and was let clot at room temperature for 30 min followed by centrifugation at 2,000×g for 15 minutes at +4′C to collect serum. Serum RBP4 was measured using the RBP4 (mouse/rat) dual ELISA kit (Enzo Life Sciences) following the manufacturer's instructions.

[4] = tested on: lipofuscin bisretinoids (A2E, A2-DHP-PE, atRAL di-PE); assay: Lipofuscin bisretinoid levels in eyecups of Abca4-/- mice by HPLC; type: in vivo, mouse; details: Example 3, treated mice, 30 mg/kg oral
Source text: The Abca4−/− mouse model manifests accelerated accumulation of lipofuscin in the RPE and is considered a pre-clinical efficacy model for a drug reducing lipofuscin accumulation. […] There was approximately a 70% reduction in the serum RBP4 level in treated animals (FIG. 11). Additionally, it was discovered that that the levels of A2E/isoA2E and other bisretinoids were reduced by approximately 50% in treated mice (FIG. 12).
Abca4/Abcr null mutant mice (albino) homozygous for Rpe65-Leu450 are bred genotyped and housed. […] An Alliance system (Waters, Corp, Milford, Mass.) equipped with 2695 Separation Module, 2996 Photodiode Array Detector, a 2475 Multi λ Fluorescence Detector and operating with Empower® software is used for HPLC analysis. […] HPLC quantification is carried out using the Empower® software to determine peak areas. […] Molar quantity per murine eye is determined using calibration curves constructed from known concentrations of purified external standards and by normalizing to the ratio of the HPLC injection volume (10 μL) versus total extract volume. […]
Following euthanasia, posterior eye cups were pooled and homogenized in PBS using a tissue grinder. […] Levels of bisretinoid were determined by reference to external standards of HPLC-purified compound.

[5] = tested on: ERG b-wave; assay: ERG b-wave after photobleaching; details: in vivo
[6] = Signs of toxicity during 6 week chronic dosing of Abca4-/- mice; type: in vivo; details: 6 week-long chronic dosing, 30 mg/kg
Procedure: as §1
Administration of A1120 reduces the production of A2E, A2-DHP-PE, and atRAL di-PE in A1120-treated Abca4−/− mice in comparison to the vehicle-treated Abca4−/− animals by approximately 50%.

[7] = tested on: insulin sensitivity; details: reference 12; cited from earlier work
[8] = Abca4-/- mice, 30 mg/kg daily oral in chow

SMILES	Induction of RBP4-TTR interaction [1]	A2E production in Abca4-/- mice [2]	Serum RBP4 reduction at Week 3 (Day 21) compared with Day 0 [3, 8] [%]	Serum RBP4 reduction at Week 6 (Day 42) compared with Day 0 [3, 8] [%]	Reduction in serum RBP4 level ([3]; orally dosed for 3 weeks at 30 mg/kg, treated animals) [%]	Levels of A2-DHP-PE and atRAL di-PE [4]	Reduction of levels of A2E/isoA2E and other bisretinoids [4]	Effect on ERG b-wave after photobleaching [5]	Signs of compound toxicity such as weight loss or reduction in food consumption [6]	Insulin sensitivity in mouse diabetes models [7]
CC1=C(/C=C/C(C)=C/C=C/C(C)=C/C(=O)Nc2ccc(O)cc2)C(C)(C)CCC1 [fenretinide, N-(4-hydroxy-phenyl)retinamide]	did not induce RBP4-TTR interaction	reduced A2E production	–	–	–	–	–	–	–	–
O=C(O)c1ccccc1NC(=O)N1CCC(c2ccccc2C(F)(F)F)CC1 [Compound 1, 2(4-(2-(trifluoromethyl)phenyl)piperidine-1-carboxamido)benzoic acid]	did not induce RBP4-TTR interaction	–	64	75	~70	reduced	approximately 50%	does not reduce ERG b-wave	did not note any obvious signs of compound toxicity	did not improve insulin sensitivity
